Among the data in ChEMBL document CHEMBL2021800, “Aberrant cyclization affords a C-6 modified cyclic adenosine 5'-diphosphoribose analogue with biological activity in Jurkat T cells” (J Med Chem, 2012) are IC50, inhibition and Activity values, retold here.

Active and inactive are the calls of the source. No cut-off for these calls is given here.

What all share (format): functional, cell-based
Assay [1] concerns Jurkat. Kind of assay: Inhibition of N1-cIDPR-induced Ca2+ release in human Jurkat T cells using fluo-3 dye by spectrofluorometry analysis.
The test system of assay [2] is Jurkat. The experiment in a line: Induction of Ca2+ release in human Jurkat T cells at 10 to 30 uM using fluo-3 dye by spectrofluorometry analysis.
Assay [3] has as its system Jurkat. Kind of assay: Induction of Ca2+ release in human Jurkat T cells at 100 to 300 uM using fluo-3 dye by spectrofluorometry analysis.
For assay [4], the system named is Jurkat. Kind of assay: Inhibition of cADPR-induced Ca2+ release in human Jurkat T cells using fluo-3 dye by spectrofluorometry analysis.

Usually IC50 stands for the point on the concentration scale where inhibition reaches its midpoint. A high value points to a need for much substance. For the compound `O=P1(O)OC[C@H]2O[C@H]([C@H](O)[C@@H]2O)n2cnc3c(ncn3[C@@H]3O[C@H](COP(=O)(O)O1)[C@@H](O)[C@H]3O)c2=S`, in assay [1], the IC50 stood at 3 µM and the inhibition entry was “Dose-dependent effect”. In assay [2], the outcome was inactive. Also, the result in assay [3] was Active. In assay [4], inhibition was half-maximal at 30 µM (IC50) and the inhibition result is “Dose-dependent effect”.
